Data on 21 molecules can be found in patent publication US7419969B2 (Bristol-Myers Squibb Company, priority 2004, dated 2008).

One may read the IC50 as the concentration at which inhibition is half-maximal.

Structures are written as SMILES.

For the first assay, the target named is T1, HIV-integrase (Human immunodeficiency virus type 1 group M subtype B, UniProt P04585).
T1 construct: Recombinant integrase (0.26 ng) was incubated with the beads
Briefly: in-vitro activity against HIV-integrase (HIV Integrase Inhibition, SPA bead assay). The class given is biochemical. The following applies: Table 1; recombinant integrase, activity class. Here is the method: To evaluate in-vitro activity against HIV-integrase, 5 pmole of biotin labeled substrate DNA was bound to 100 μg of Streptavidin coated PVT SPA beads (Amersham Pharmacia Biotech). Recombinant integrase (0.26 ng) was incubated with the beads for 90 min at 37° C. Unbound enzyme was removed by washing the complex followed by addition of inhibitors and […] of P33 labeled target DNA. The reaction was stopped by adding EDTA to a final concentration of 10 mM. Samples were counted in TopCountNXT (Packard) and the CPM was used as a measure of integration. The reaction condition was as described in Engelman, A. and Craigie, R. J. Vitrol. 1996, 69, 5908. The sequences of substrate and target DNA were described in Nucleic Acid Research 1994, 22, 1121.
In the case of `O=C(NCc1ccccc1-n1cncn1)c1nc2n(c(=O)c1O)CCCC21CCCC1` [Example 3, N-[[2-(1H-1,2,4-triazol-1-yl)phenyl]methyl]-7′,8′-dihydro-3′-hydroxy-4′-oxo-spiro[cyclopentane-1,9′(6′H)-[4H]pyrido[1,2-α]pyrimidine]-2′-carboxamide], the half-maximal inhibitory concentration (IC50) was in the range of 1 to 10 nM.
Still for that read-out and setting: in the case of `Cc1cc(CNC(=O)c2nc3n(c(=O)c2O)CCCC32CCCC2)ccc1F` [Example 2, N-[(4-fluoro-3-methylphenyl)methyl]-7′,8′-dihydro-3′-hydroxy-4′-oxo-spiro[cyclopentane-1,9′(6′H)-[4H]pyrido[1,2-a]pyrimidine]-2′-carboxamide] it was 1 to 10 nM; in that of `O=C(NCc1ccc(F)cc1)c1nc2n(c(=O)c1O)CCCC21CCC1` [Example 66, N-[(4-fluorophenyl)methyl]-7′,8′-dihydro-3′-hydroxy-4′-oxo-spiro[cyclobutane-1,9′(6′H)-[4H]pyrido[1,2-α]pyrimidine]-2′-carboxamide], 1 to 10 nM.
Turning to `O=C(NCc1ccccc1F)c1nc2n(c(=O)c1O)CCCC21CCC1` [Example 68, N-[(2-fluorophenyl)methyl]-7′,8′-dihydro-3′-hydroxy-4′-oxo-spiro[cyclobutane-1,9′(6′H)-[4H]pyrido[1,2-α]pyrimidine]-2′-carboxamide], the IC50 fell in the range of 10 to 100 nM.
Take `O=C(NCc1ccc(F)cc1N1CCCCS1(=O)=O)c1nc2n(c(=O)c1O)CCOC21CCOCC1` [Example 42, N-[[4-fluoro-2-(tetrahydro-1,1-dioxido-2H-1,2-thiazin-2-yl)phenyl]methyl]-2,3,5,6,6′,7′-hexahydro-3′-hydroxy-4′-oxo-spiro[4H-pyran-4,9′(4′H)-pyrimido[2,1-c][1,4]oxazine]-2′-carboxamide]: the IC50 fell in the range of 1 to 10 nM.
For `O=C(NCc1ccc(F)cc1)c1nc2n(c(=O)c1O)CCCC21CCOCC1` [Example 13, N-[(4-fluorophenyl)methyl]-2,3,5,6,7′,8′-hexahydro-3′-hydroxy-4′-oxo-spiro[4H-pyran-4,9′(6′H)-[4H]pyrido[1,2-a]pyrimidine]-2′-carboxamide], the IC50 was in the range of 1 to 10 nM.
Same read-out and setting: under `O=C(NCc1ccc(F)cc1-n1cncn1)c1nc2n(c(=O)c1O)CCOC21CCOC1` (stereo not drawn) [Example 38] stands 1 to 10 nM; under `CN(C)S(=O)(=O)c1cc(F)ccc1CNC(=O)c1nc2n(c(=O)c1O)CCOC21CCOCC1` [Example 47, N-[[2-[(dimethylamino)sulfonyl]-4-fluorophenyl]methyl]-2,3,5,6,6′,7′-hexahydro-3′-hydroxy-4′-oxo-spiro[4H-pyran-4,9′(4′H)-pyrimido[2,1-c][1,4]oxazine]-2′-carboxamide], 10 to 100 nM.
Same read-out and setting: under `Cc1ccc(CNC(=O)c2nc3n(c(=O)c2O)CCCC32CCC2)cc1C` [Example 69, N-[(3,4-dimethylphenyl)methyl]-7′,8′-dihydro-3′-hydroxy-4′-oxo-spiro[cyclobutane-1,9′(6′H)-[4H]pyrido[1,2-α]pyrimidine]-2′-carboxamide] stands 1 to 10 nM.
Still for that read-out and setting: in the case of `O=C(NCc1ccc(F)cc1)c1nc2n(c(=O)c1O)CCOC21CCC1` [Example 52, N-[(4-fluorophenyl)methyl]-6′,7′-dihydro-3′-hydroxy-4′-oxo-spiro[cyclobutane-1,9′(4′H)-pyrimido[2,1-c][1,4]oxazine]-2′-carboxamide] it was 1 to 10 nM.
For the molecule `O=C(NCc1ccccc1N1CCCCS1(=O)=O)c1nc2n(c(=O)c1O)CCCC21CCCC1` [Example 8, N-[[2-(tetrahydro-1,1-dioxido-2H-1,2-thiazin-2-yl)phenyl]methyl]-7′,8′-dihydro-3′-hydroxy-4′-oxo-spiro[cyclopentane-1,9′(6′H)-[4H]pyrido[1,2-α]pyrimidine]-2′-carboxamide], the IC50 lay in the range of 10 to 100 nM.
Still for that read-out and setting: in the case of `Cc1ncnn1-c1cc(F)ccc1CNC(=O)c1nc2n(c(=O)c1O)CCOC21CCC1` [Example 57, N-[[4-fluoro-2-(5-methyl-1H-1,2,4-triazol-1-yl)phenyl]methyl]-6′,7′-dihydro-3′-hydroxy-4′-oxo-spiro[cyclobutane-1,9′(4′H)-pyrimido[2,1-c][1,4]oxazine]-2′-carboxamide] it was 1 to 10 nM.
Same read-out and setting: under `O=C(NCc1cc(F)ccc1-n1cncn1)c1nc2n(c(=O)c1O)CCCC21CCC1` [Example 77, N-[[5-fluoro-2-(1H-1,2,4-triazol-1-yl)phenyl]methyl]-7′,8′-dihydro-3′-hydroxy-4′-oxo-spiro[cyclobutane-1,9′(6′H)-[4H]pyrido[1,2-α]pyrimidine]-2′-carboxamide] stands 1 to 10 nM.
Still for that read-out and setting: in the case of `Cc1ccc(CNC(=O)c2nc3n(c(=O)c2O)CCOC32CCOCC2)cc1C` [Example 48, N-[(3,4-dimethylphenyl)methyl]-2,3,5,6,6′,7′-hexahydro-3′-hydroxy-4′-oxo-spiro[4H-pyran-4,9′(4′H)-pyrimido[2,1-c][1,4]oxazine]-2′-carboxamide] it was 1 to 10 nM.
Consider `O=C(NCc1ccc(Cl)cc1)c1nc2n(c(=O)c1O)CCOC21CCCC1` [Example 20, N-[(4-chlorophenyl)methyl]-6′,7′-dihydro-3′-hydroxy-4′-oxo-spiro[cyclopentane-1,9′(4′H)-pyrimido[2,1-c][1,4]oxazine]-2′-carboxamide], for which the IC50 lay within 1 to 10 nM.
With `Cc1cc(CNC(=O)c2nc3n(c(=O)c2O)CCOC32CCOCC2)ccc1F` [Example 45, N-[(4-fluoro-3-methylphenyl)methyl]-2,3,5,6,6′,7′-hexahydro-3′-hydroxy-4′-oxo-spiro[4H-pyran-4,9′(4′H)-pyrimido[2,1-c][1,4]oxazine]-2′-carboxamide], the IC50 was 1 to 10 nM.
The same measure, in the same setting: under `O=C(NCc1ccccc1N1CCCCS1(=O)=O)c1nc2n(c(=O)c1O)CCOC21CCCC1` [Example 35, 6′,7′-dihydro-3′-hydroxy-4′-oxo-N-[[2-(tetrahydro-1,1-dioxido-2H-1,2-thiazin-2-yl)phenyl]methyl]-spiro[cyclopentane-1,9′(4′H)-pyrimido[2,1-c][1,4]oxazine]-2′-carboxamide] stands 10 to 100 nM; under `O=C(NCc1cc(F)ccc1-n1cncn1)c1nc2n(c(=O)c1O)CCCC21CCCC1` [Example 5, N-[[5-fluoro-2-(1H-1,2,4-triazol-1-yl)phenyl]methyl]-7′,8′-dihydro-3′-hydroxy-4′-oxo-spiro[cyclopentane-1,9′(6′H)-[4H]pyrido[1,2-α]pyrimidine]-2′-carboxamide], 1 to 10 nM.
Turning to `CN(C)S(=O)(=O)c1cc(F)ccc1CNC(=O)c1nc2n(c(=O)c1O)CCCC21CCC1` [Example 82, N-[[2-[(dimethylamino)sulfonyl]-4-fluorophenyl]methyl]-7′,8′-dihydro-3′-hydroxy-4′-oxo-spiro[cyclobutane-1,9′(6′H)-[4H]pyrido[1,2-α]pyrimidine]-2′-carboxamide], the IC50 fell in the range of 1 to 10 nM.
Same read-out and setting: under `CS(=O)(=O)c1cc(F)ccc1CNC(=O)c1nc2n(c(=O)c1O)CCOC21CCOC1` (stereo not drawn) [Example 90, N-[[4-fluoro-2-(methylsulfonyl)phenyl]methyl]-4,5,6′,7′-tetrahydro-3′-hydroxy-4′-oxo-spiro[furan-3(2H),9′(4′H)-pyrimido[2,1-c][1,4]oxazine]-2′-carboxamide] stands 10 to 100 nM.

Staying with this assay, now noted: Table 1a; recombinant integrase, activity class.
Turning to `O=C(NCc1ccc(F)cc1)c1nc2n(c(=O)c1O)CCCOC21CCOCC1` [Example 114, Spiro[4H-pyran-4,10′(4′H)-[6H]pyrimido[2,1-c][1,4]oxazepine]-2′-carboxamide, N-[(4-fluorophenyl)methyl]-2,3,5,6,7′,8′-hexahydro-3′-hydroxy-4′-oxo-], the IC50 lay in the range of 1 to 10 nM.
